# Tests used:
# Type in all cases: biochemical
# [1] = target: T1, PI3Kα (Homo sapiens, UniProt P42336); assay: In vitro determination of the PI3K enzyme inhibitory activity in the cell free assay (ADP-Glo Kinase Assay), PI3Kα; settings: ATP 50 μM, read-out: PI3K alpha inhibition
# T1 construct: purchased Millipore Ltd (Billerica, Mass.)
# Method: (§1) In vitro Determination of the PI3K Enzyme Inhibitory Activity in the Cell Free Assay
# (§2) Human recombinant proteins PI3Kα, PI3Kβ, PI3Kγ and PI3Kδ were purchased from Millipore Ltd (Billerica, Mass.). Compounds were dissolved at 0.5 mM in DMSO and were tested at different concentrations for their activity against PI3Ks using the ADP-Glo™ Kinase Assay (Promega, Madison Wis.) according to the manufacturer's instructions.
# (§3) Briefly, the kinase reactions were performed in 384-well white plates (Greiner Bio-One GmbH, Frickenhausen). Each well was loaded with 0.1 μl of test compounds and 2.5 μl of 2× reaction buffer (40 mM Tris pH7.5, 0.5 mM EGTA, 0.5 mM Na3VO4, 5 mM β-glycerophosphate, 0.1 mg/ml BSA, 1 mM DTT), containing 50 μM PI and PS substrates (L-α-phosphatidylinositol sodium salt and L-α-phosphatidyl-L-serine, Sigma-Aldrich, St. Louis Mo.) and the PI3K recombinant proteins (PI3Kγ 0.25 ng/μl, PI3Kδ 1 ng/μl, PI3Kα 0.125 ng/μl, PI3Kβ 1 ng/μl).
# (§4) The reactions were started by adding 2.5 μl of 2×ATP solution to each well (final concentrations: PI3Kγ ATP 30 μM; PI3Kδ ATP 80 μM; PI3KαATP 50 μM; PI3Kβ ATP 100 μM) and incubated for 60 min at room temperature. Subsequently, each kinase reaction was incubated for 40 min with 5 μl ADP-Glo™ Reagent, allowing depletion of unconsumed ATP. Then, the Kinase Detection Reagent (10 μl) was added in each well to convert ADP to ATP and to allow the newly synthesized ATP to be measured using a luciferase/luciferin reaction. Following 60 min incubation, the luminescence signal was measured using a Wallac EnVision® multilabel reader (PerkinElmer, Waltham Mass.).
# (§5) Curve fitting and IC50 calculation were carried out using a four-parameter logistic model in XLfit (IDBS, Guilford, UK) for Microsoft Excel (Microsoft, Redmont, Wash.).
# [2] = target: T2, PI3Kγ (Homo sapiens, UniProt P48736); assay: In vitro determination of the PI3K enzyme inhibitory activity in the cell free assay (ADP-Glo Kinase Assay), PI3Kγ; settings: ATP 30 μM, read-out: PI3K gamma inhibition
# T2 construct: purchased Millipore Ltd (Billerica, Mass.)
# Method: as §1, §2, §3, §4, §5
# [3] = target: T3, PI3Kδ (Homo sapiens, UniProt O00329); assay: In vitro determination of the PI3K enzyme inhibitory activity in the cell free assay (ADP-Glo Kinase Assay), PI3Kδ; settings: ATP 80 μM, read-out: PI3K delta inhibition
# T3 construct: purchased Millipore Ltd (Billerica, Mass.)
# Method: as §1, §2, §3, §4, §5
# [4] = target: T4, PI3Kβ (Homo sapiens, UniProt P42338); assay: In vitro determination of the PI3K enzyme inhibitory activity in the cell free assay (ADP-Glo Kinase Assay), PI3Kβ; settings: ATP 100 μM, read-out: PI3K beta inhibition
# T4 construct: purchased Millipore Ltd (Billerica, Mass.)
# Method: as §1, §2, §3, §4, §5
# T3 sequence (O00329 whole entry): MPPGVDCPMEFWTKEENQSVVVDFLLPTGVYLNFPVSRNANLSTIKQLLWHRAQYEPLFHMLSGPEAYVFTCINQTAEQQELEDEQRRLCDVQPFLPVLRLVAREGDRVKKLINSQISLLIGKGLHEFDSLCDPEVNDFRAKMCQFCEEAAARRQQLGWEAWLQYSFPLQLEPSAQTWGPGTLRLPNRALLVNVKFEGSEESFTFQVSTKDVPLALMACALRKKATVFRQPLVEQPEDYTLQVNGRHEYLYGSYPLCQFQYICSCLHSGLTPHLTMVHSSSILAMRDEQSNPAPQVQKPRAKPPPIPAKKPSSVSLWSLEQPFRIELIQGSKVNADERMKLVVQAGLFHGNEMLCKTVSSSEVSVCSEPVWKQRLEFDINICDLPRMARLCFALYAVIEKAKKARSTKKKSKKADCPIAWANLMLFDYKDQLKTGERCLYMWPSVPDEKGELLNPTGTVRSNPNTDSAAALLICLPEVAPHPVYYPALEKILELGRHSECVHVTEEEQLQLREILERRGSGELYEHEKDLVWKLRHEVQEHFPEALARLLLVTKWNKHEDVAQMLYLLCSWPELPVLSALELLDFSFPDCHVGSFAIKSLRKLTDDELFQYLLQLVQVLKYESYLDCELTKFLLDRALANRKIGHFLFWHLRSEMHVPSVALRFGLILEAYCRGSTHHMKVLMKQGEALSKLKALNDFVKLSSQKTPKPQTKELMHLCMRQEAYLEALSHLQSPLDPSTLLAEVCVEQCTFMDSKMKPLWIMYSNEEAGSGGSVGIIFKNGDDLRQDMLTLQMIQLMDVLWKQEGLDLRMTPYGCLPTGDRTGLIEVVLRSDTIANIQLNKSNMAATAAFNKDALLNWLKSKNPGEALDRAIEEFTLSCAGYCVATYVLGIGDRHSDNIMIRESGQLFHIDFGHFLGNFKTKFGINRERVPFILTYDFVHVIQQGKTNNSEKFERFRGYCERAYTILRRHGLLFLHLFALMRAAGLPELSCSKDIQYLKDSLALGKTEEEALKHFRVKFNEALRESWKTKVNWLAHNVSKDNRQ
# T3 sequence (P27986 whole entry partner): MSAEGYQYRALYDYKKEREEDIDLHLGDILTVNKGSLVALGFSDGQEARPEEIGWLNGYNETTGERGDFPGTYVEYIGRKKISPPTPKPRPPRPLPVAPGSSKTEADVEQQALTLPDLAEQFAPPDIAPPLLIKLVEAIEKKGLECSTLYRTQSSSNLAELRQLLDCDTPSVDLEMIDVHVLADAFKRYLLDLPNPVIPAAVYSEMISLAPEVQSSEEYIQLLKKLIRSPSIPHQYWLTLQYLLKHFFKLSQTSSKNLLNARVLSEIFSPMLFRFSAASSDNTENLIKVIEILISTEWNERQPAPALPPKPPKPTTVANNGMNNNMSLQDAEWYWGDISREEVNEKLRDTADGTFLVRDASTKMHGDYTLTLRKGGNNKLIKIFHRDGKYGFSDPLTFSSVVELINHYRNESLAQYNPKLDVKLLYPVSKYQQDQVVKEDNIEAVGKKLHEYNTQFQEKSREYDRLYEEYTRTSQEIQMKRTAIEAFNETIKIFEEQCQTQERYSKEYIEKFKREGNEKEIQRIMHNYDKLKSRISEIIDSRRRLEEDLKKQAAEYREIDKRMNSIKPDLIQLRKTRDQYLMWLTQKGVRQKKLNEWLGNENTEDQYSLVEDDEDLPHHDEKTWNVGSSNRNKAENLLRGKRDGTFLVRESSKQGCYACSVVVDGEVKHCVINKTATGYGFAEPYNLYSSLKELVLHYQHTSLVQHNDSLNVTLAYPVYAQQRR
# T2 sequence (P48736 whole entry): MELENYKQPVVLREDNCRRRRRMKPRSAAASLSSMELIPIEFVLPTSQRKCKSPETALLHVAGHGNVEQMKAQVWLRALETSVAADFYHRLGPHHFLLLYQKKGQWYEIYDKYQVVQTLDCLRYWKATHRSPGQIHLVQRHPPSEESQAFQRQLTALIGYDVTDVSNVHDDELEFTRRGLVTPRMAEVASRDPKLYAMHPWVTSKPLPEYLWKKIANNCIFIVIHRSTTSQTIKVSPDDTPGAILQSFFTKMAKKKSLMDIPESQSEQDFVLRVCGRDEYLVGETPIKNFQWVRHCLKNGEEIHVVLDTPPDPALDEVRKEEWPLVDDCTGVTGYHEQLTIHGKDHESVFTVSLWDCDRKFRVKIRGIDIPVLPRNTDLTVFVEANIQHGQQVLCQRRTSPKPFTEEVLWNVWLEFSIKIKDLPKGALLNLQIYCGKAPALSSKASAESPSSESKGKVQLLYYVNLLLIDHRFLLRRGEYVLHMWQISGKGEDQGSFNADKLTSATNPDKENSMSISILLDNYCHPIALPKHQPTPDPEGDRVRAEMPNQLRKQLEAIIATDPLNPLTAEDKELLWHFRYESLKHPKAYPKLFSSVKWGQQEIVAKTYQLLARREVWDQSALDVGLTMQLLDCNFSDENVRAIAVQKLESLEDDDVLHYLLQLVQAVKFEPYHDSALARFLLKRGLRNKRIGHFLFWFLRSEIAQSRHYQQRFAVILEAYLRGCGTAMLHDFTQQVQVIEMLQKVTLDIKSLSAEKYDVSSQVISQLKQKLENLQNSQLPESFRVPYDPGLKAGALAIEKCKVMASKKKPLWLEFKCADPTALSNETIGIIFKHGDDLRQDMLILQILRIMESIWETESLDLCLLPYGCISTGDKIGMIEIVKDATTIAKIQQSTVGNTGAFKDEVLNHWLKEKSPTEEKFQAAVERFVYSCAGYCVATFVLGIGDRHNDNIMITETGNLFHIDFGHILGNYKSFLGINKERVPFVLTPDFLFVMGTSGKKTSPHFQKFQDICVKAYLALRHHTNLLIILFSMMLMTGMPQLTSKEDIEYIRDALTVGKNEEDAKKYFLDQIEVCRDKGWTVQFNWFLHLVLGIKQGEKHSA
# T1 sequence (P42336 whole entry): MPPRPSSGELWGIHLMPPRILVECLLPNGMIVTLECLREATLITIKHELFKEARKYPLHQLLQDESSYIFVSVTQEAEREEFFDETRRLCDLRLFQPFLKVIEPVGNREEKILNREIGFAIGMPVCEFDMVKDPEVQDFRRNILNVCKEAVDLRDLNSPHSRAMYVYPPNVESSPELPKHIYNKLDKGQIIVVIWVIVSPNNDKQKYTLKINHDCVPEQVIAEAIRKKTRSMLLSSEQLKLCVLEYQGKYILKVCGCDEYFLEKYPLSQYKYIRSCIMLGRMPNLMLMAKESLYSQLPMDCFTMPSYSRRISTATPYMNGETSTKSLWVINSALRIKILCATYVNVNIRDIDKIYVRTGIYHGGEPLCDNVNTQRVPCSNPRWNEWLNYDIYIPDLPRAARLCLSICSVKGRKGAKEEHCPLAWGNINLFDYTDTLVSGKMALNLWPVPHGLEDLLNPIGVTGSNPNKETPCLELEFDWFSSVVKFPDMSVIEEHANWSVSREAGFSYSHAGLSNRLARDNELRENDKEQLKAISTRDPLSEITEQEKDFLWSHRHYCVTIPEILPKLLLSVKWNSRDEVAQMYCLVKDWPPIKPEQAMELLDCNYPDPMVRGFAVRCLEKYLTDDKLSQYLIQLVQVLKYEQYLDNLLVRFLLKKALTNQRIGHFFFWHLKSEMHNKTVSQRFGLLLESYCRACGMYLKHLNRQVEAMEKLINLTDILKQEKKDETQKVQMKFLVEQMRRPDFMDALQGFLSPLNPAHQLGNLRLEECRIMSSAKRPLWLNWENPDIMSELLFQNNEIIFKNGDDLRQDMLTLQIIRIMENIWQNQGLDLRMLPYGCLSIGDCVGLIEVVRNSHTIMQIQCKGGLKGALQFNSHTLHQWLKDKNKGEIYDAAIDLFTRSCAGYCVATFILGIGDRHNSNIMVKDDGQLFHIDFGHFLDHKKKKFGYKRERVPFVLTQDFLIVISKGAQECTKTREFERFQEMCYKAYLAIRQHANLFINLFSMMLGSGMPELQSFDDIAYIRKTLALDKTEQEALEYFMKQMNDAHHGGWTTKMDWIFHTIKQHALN
# T1 sequence (P27986 whole entry partner): as the sequence (P27986 whole entry partner) above
# T4 sequence (P42338 whole entry): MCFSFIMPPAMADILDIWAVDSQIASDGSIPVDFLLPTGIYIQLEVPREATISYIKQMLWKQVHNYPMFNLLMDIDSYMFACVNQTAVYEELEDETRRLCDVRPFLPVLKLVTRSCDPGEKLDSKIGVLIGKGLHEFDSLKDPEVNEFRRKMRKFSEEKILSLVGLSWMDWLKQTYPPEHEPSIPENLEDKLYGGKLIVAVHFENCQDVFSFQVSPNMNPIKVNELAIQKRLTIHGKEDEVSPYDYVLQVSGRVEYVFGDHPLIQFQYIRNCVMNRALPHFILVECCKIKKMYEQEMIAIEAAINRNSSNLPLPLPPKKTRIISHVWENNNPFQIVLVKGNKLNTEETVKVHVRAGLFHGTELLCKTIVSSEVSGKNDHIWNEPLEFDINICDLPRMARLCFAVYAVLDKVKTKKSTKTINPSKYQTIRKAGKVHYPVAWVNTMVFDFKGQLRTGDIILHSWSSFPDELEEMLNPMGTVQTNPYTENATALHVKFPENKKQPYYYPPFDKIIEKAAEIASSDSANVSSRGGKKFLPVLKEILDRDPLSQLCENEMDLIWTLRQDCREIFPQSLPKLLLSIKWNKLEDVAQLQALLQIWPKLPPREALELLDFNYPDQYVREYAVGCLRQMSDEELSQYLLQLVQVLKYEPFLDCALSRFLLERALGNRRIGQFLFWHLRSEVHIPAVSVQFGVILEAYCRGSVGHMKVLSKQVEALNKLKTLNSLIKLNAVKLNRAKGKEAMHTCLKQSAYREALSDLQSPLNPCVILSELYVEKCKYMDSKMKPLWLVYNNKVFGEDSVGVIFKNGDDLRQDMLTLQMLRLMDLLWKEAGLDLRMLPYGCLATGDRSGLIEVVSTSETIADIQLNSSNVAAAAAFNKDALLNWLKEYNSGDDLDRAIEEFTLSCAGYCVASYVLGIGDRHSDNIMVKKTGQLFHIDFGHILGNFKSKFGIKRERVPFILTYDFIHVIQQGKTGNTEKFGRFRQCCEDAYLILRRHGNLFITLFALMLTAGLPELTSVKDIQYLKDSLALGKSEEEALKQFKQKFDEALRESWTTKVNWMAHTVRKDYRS
# T4 sequence (P27986 whole entry partner): as the sequence (P27986 whole entry partner) above
IC50 [1] [nM],IC50 [2] [nM],IC50 [3] [nM],IC50 [4] [nM],SMILES
> 1000,> 1000,< 10,10 to 1000,"CC(c1cc2ccccn2c1-c1ccc(CN(CCO)CCO)cn1)n1nc(-c2cc(O)cc(F)c2)c2c(N)ncnc21 (centres unmarked) [Example 117, 3-(4-amino-1-{1-[3-(5-{[bis(2-hydroxyethyl)amino]methyl}pyridin-2-yl)indolizin-2-yl]ethyl}-1H-pyrazolo[3,4-d]pyrimidin-3-yl)-5-fluorophenol]"
> 1000,> 1000,10 to 1000,> 1000,"Fc1cccc(-c2c(CNc3ncnc4[nH]cnc34)cn3ccccc23)c1 [Example 18, N-{[1-(3-fluorophenyl)indolizin-2-yl]methyl}-9H-purin-6-amine]"
> 1000,> 1000,10 to 1000,> 1000,"CC(Nc1ncnc(N)c1Br)c1cc2ccccn2c1-c1ccccn1 (centres unmarked) [Example 48, 5-bromo-4-N-{1-[3-(pyridin-2-yl)indolizin-2-yl]ethyl}pyrimidine-4,6-diamine]"
10 to 1000,10 to 1000,< 10,10 to 1000,"CC(c1cc2ccccn2c1-c1cc(CN2CCN(C)CC2)ccn1)n1nc(-c2cc(O)cc(F)c2)c2c(N)ncnc21 (centres unmarked) [Example 116, 3-{4-amino-1-[1-(3-{4-[(4-methylpiperazin-1-yl)methyl]pyridin-2-yl}indolizin-2-yl)ethyl]-1H-pyrazolo-[3,4-d]pyrimidin-3-yl}-5-fluorophenol]"
> 1000,> 1000,10 to 1000,> 1000,"N#Cc1c(N)ncnc1NCc1cn2ccccc2c1-c1ccccn1 [Example 30, 4-amino-6-({[1-(pyridin-2-yl)indolizin-2-yl]methyl}amino)pyrimidine-5-carbonitrile]"
> 1000,> 1000,< 10,> 1000,"Cc1cccc2cc(C(C)Nc3ncnc(N)c3C#N)c(-c3ccccn3)n12 (centres unmarked) [Example 40, 4-amino-6-({1-[5-methyl-3-(pyridin-2-yl)indolizin-2-yl]ethyl}amino)pyrimidine-5-carbonitrile]"
> 1000,> 1000,10 to 1000,10 to 1000,"CC(Nc1ncnc(N)c1C#N)c1cc2ccccn2c1-c1cnccn1 (centres unmarked) [Example 35, 4-amino-6-({1-[3-(pyrazin-2-yl)indolizin-2-yl]ethyl}amino)pyrimidine-5-carbonitrile]"
10 to 1000,10 to 1000,< 10,10 to 1000,"CC(c1cc2ccccn2c1-c1ccc(C(=O)N2CCOCC2)cn1)n1nc(-c2cc(O)cc(F)c2)c2c(N)ncnc21 (centres unmarked) [Example 125, 3-[4-amino-1-(1-{3-[5-(morpholine-4-carbonyl)pyridin-2-yl]indolizin-2-yl}ethyl)-1H-pyrazolo[3,4-d]-pyrimidin-3-yl]-5-fluorophenol]"
> 1000,10 to 1000,< 10,10 to 1000,"Cc1cc(-c2c(C(C)n3nc(-c4cncc(O)c4)c4c(N)ncnc43)cc3ccccn23)ccn1 (centres unmarked) [Example 107, 5-(4-amino-1-{1-[3-(2-methylpyridin-4-yl)indolizin-2-yl]ethyl}-1H-pyrazolo[3,4-d]pyrimidin-3-yl)pyridin-3-ol]"
> 1000,10 to 1000,10 to 1000,10 to 1000,"CC(Nc1ncnc(N)c1C#N)c1cc2ccccn2c1-c1ccncc1 (centres unmarked) [Example 36, 4-amino-6-({1-[3-(pyridin-4-yl)indolizin-2-yl]ethyl}amino)pyrimidine-5-carbonitrile]"
> 1000,> 1000,< 10,10 to 1000,"CC(c1cc2ccccn2c1-c1ccn(CCN2CCOCC2)c(=O)c1)n1nc(-c2cncc(O)c2)c2c(N)ncnc21 (centres unmarked) [Example 122, 4-(2-{1-[4-amino-3-(5-hydroxypyridin-3-yl)-1H-pyrazolo[3,4-d]pyrimidin-1-yl]ethyl}indolizin-3-yl)-1-[2-(morpholin-4-yl)ethyl]-1,2-dihydropyridin-2-one]"

# Source: US9527869B2, “Indolizine derivatives as phoshoinositide 3-kinases inhibitors” (CHIESI FARMACEUTICI S.P.A., priority 2014, dated 2016)
